The target of assay [1] is Melanocyte-stimulating hormone receptor (Mus musculus) (UniProt Q01727). In words: Antagonist activity MC1 receptor in mouse B16 cells assessed as inhibition of alpha-MSH-induced cAMP accumulation at 100 uM. Format: functional, cell-based.
Assay [2] deals with T1, Melanocortin receptor 3 (Homo sapiens, UniProt P41968). The assay can be described thus: Antagonist activity at MC3 receptor expressed in COS1 cells assessed as inhibition of alpha-MSH-induced cAMP accumulation at 100 uM. To be noted: COS-1. The format is functional, cell-based.
T1 sequence (P41968 whole entry): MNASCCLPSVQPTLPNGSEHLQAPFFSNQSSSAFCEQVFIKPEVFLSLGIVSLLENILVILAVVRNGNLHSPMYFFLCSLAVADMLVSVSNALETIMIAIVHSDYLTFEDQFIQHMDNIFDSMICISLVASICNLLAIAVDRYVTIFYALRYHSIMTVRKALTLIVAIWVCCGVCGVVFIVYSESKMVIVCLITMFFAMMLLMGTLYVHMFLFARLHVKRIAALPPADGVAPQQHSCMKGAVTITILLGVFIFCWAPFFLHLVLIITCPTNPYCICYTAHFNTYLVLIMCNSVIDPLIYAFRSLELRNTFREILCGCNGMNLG
Assay [3] concerns the target T2, Melanocortin receptor 4 (Homo sapiens, UniProt P32245). In words: Antagonist activity at MC4 receptor expressed in COS1 cells assessed as inhibition of alpha-MSH-induced cAMP accumulation at 100 uM. To be noted: COS-1. The format is functional, cell-based.
In assay [4] the target is T3, Melanocortin receptor 5 (Homo sapiens, UniProt P33032). The assay can be described thus: Antagonist activity at MC5 receptor expressed in COS1 cells assessed as inhibition of alpha-MSH-induced cAMP accumulation at 100 uM. To be noted: COS-1. Format: functional, cell-based.
T3 sequence (P33032 whole entry): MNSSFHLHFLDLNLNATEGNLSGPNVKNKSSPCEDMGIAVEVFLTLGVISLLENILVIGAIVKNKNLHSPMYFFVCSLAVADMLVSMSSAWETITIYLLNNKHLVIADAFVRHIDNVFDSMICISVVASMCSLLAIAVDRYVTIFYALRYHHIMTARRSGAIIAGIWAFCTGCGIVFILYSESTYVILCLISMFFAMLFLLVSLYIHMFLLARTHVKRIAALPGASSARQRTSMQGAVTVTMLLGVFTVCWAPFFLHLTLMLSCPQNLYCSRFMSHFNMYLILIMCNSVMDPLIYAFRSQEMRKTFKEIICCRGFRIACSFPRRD
Assay [5] concerns the target Melanocyte-stimulating hormone receptor (Mus musculus, UniProt Q01727). In words: Displacement of [125I]NDP-MSH from MC1 receptor in mouse B16 cells. The format is cell-based.
The target of assay [6] is T1, Melanocortin receptor 3. The assay can be described thus: Displacement of [125I]NDP-MSH from human recombinant MC3 receptor expressed in Sf9 cells.
Assay [7] concerns the target T2, Melanocortin receptor 4. In words: Displacement of [125I]NDP-MSH from human recombinant MC4 receptor expressed in Sf9 cells.
In assay [8] the target is T3, Melanocortin receptor 5. In words: Displacement of [125I]NDP-MSH from human recombinant MC5 receptor expressed in Sf9 cells.

Active and inactive are the calls of the source. The rule behind the calls is not given here.

Drawing on ChEMBL document CHEMBL1149662, “Design and synthesis of a library of tertiary amides: evaluation as mimetics of the melanocortins' active core” (Bioorg Med Chem, 2007), this text covers Activity and Ki for 38 molecules.

Melanocyte-stimulating hormone receptor, sequence (Q01727 whole entry): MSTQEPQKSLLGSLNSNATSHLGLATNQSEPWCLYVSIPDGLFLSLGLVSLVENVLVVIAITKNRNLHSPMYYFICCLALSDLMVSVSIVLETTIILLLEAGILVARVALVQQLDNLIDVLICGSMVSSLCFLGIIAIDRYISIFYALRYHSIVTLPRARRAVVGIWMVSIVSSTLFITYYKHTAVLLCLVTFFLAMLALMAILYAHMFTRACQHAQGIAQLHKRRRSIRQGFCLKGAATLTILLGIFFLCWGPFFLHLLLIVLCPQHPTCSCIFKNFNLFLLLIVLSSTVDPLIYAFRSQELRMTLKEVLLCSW
T2 sequence (P32245 whole entry): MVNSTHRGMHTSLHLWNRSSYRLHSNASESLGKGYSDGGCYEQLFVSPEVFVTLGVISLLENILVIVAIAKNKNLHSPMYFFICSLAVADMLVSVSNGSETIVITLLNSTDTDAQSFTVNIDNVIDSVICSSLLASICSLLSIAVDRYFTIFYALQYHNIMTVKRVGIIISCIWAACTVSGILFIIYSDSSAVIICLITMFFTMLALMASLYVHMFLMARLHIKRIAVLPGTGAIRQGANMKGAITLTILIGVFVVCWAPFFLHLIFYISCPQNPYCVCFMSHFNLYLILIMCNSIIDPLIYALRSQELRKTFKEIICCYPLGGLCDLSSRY
Melanocyte-stimulating hormone receptor (Mus musculus), sequence (Q01727 whole entry, looked up): as the sequence (Q01727 whole entry) above

As to `N=C(N)NCCCCN(Cc1ccc2ccccc2c1)C(=O)CCc1c[nH]c2ccccc12`, the outcome (in assay [1]; on Melanocortin receptor 3 [2]; at Melanocortin receptor 4 [3]; at Melanocortin receptor 5 [4]) was Active.

In the case of `N=C(N)NCCCN(Cc1ccc2ccccc2c1)C(=O)CCc1c[nH]c2ccccc12`, the Ki in assay [5] came to 12 µM; at Melanocortin receptor 3 [6], 53 µM; on Melanocortin receptor 4 [7] it was 16 µM; at Melanocortin receptor 5 [8] it was 13 µM. The outcome (in assay [1]; at Melanocortin receptor 3 [2]; at Melanocortin receptor 4 [3]; on Melanocortin receptor 5 [4]) was Active.

With `NCC1CCCC(CN(Cc2ccccc2)C(=O)CCCc2c[nH]c3ccccc23)C1` (stereo unspecified), the Ki in assay [5] was 2.7 µM; on Melanocortin receptor 3 [6] it was 24 µM; at Melanocortin receptor 4 [7], 3.6 µM; at Melanocortin receptor 5 [8], 8.7 µM.

Consider `N[C@H]1CC[C@H](N(C/C(Cl)=C/c2ccccc2)C(=O)CCCc2c[nH]c3ccccc23)CC1`, for which the Ki turned out to be 2.8 µM in assay [5], 10 µM on Melanocortin receptor 3 [6], 3.2 µM at Melanocortin receptor 4 [7] and 10 µM at Melanocortin receptor 5 [8].

Take `NC1CCC(CC2CCC(N(C/C(Cl)=C/c3ccccc3)C(=O)CCCc3c[nH]c4ccccc34)CC2)CC1` (stereo in doubt; form 4): the Ki in assay [5] was 1.4 µM; on Melanocortin receptor 3 [6], 31 µM; at Melanocortin receptor 4 [7] it was 5.6 µM; at Melanocortin receptor 5 [8], 4.9 µM.

With `COc1cc(O)ccc1/C=C/CN(C(=O)CCCc1c[nH]c2ccccc12)C1CCC(CC2CCC(N)CC2)CC1` (stereo in doubt; form 1), the Ki in assay [5] was determined as 2.9 µM; at Melanocortin receptor 3 [6], 37 µM; on Melanocortin receptor 4 [7], 6.4 µM; at Melanocortin receptor 5 [8], 7.6 µM.

For the molecule `NCCCCCN(CCc1ccc2ccccc2c1)C(=O)Cc1c[nH]c2ccccc12`, the Ki in assay [5] worked out at 4.5 µM; on Melanocortin receptor 3 [6], 13 µM; on Melanocortin receptor 4 [7] it was 9.4 µM; at Melanocortin receptor 5 [8], 8 µM.

Turning to `COc1ccc(CN(C(=O)CCCc2c(Cc3ccc(O)cc3)[nH]c3ccccc23)C2CCC(CC3CCC(N)CC3)CC2)cc1Br` (stereo unspecified), the Ki stood at 2.6 µM in assay [5], 132 µM on Melanocortin receptor 3 [6], 2.5 µM at Melanocortin receptor 4 [7] and 23 µM on Melanocortin receptor 5 [8].

In the case of `COc1ccc(CN(C(=O)CCCc2c[nH]c3ccccc23)C2CCC(CC3CCC(N)CC3)CC2)cc1Br` (stereo unspecified), the Ki in assay [5] is 2.9 µM; on Melanocortin receptor 3 [6] it was 9.3 µM; on Melanocortin receptor 4 [7], 4.8 µM; on Melanocortin receptor 5 [8] it was 278 µM.

As for `C/C(=C\c1ccccc1)CN(CCCN)C(=O)CCCc1cccs1`, the Ki in assay [5] came to 6.8 µM; at Melanocortin receptor 3 [6] it was 63 µM; on Melanocortin receptor 4 [7], 14 µM; on Melanocortin receptor 5 [8], 91 µM.

In the case of `COC(=O)c1ccc(CN(C(=O)CCCc2c(Cc3ccc(O)cc3)[nH]c3ccccc23)C2CCC(CC3CCC(N)CC3)CC2)cc1` (stereo unspecified), the Ki in assay [5] was 4.3 µM; at Melanocortin receptor 3 [6], 46 µM; on Melanocortin receptor 4 [7] it was 2.7 µM; at Melanocortin receptor 5 [8] it was 6.7 µM.

For `C=C(Br)CN(C(=O)CCCc1c[nH]c2ccccc12)C1CCC(CC2CCC(N)CC2)CC1` (stereo in doubt; form 2), the Ki in assay [5] was 1.4 µM; on Melanocortin receptor 3 [6], 29 µM; at Melanocortin receptor 4 [7] it was 5.5 µM; on Melanocortin receptor 5 [8], 9.4 µM.

On to `CC(c1ccc2ccccc2c1)N(CCN)C(=O)Cc1c[nH]c2ccccc12` (stereo unspecified), for which the Ki in assay [5] is 4.4 µM; on Melanocortin receptor 3 [6] it was 11 µM; on Melanocortin receptor 4 [7] it was 11 µM; on Melanocortin receptor 5 [8], 19 µM.

Regarding `NC1CCC(CC2CCC(N(Cc3c(Cl)cccc3Cl)C(=O)CCCc3c[nH]c4ccccc34)CC2)CC1` (stereo unspecified), the Ki in assay [5] turned out to be 2.5 µM; at Melanocortin receptor 3 [6] it was 25 µM; on Melanocortin receptor 4 [7] it was 2.6 µM; at Melanocortin receptor 5 [8] it was 7.2 µM.

As to `NCCCN1CCN(CCCN(C/C(Cl)=C/c2ccccc2)C(=O)CCCc2c[nH]c3ccccc23)CC1`, the Ki in assay [5] came out at 4.6 µM; on Melanocortin receptor 3 [6] it was 78 µM; at Melanocortin receptor 4 [7], 9.2 µM; at Melanocortin receptor 5 [8], 6.6 µM.

On to `NC1CCC(CC2CCC(N(Cc3ccccc3F)C(=O)CCCc3c(Cc4ccc(O)cc4)[nH]c4ccccc34)CC2)CC1` (stereo unspecified), for which the Ki in assay [5] was 1 µM; on Melanocortin receptor 3 [6], 55 µM; on Melanocortin receptor 4 [7] it was 1.5 µM; on Melanocortin receptor 5 [8], 36 µM.

In the case of `NC1CCC(CC2CCC(N(C/C(Cl)=C/c3ccccc3)C(=O)c3cc4cc(OCc5ccccc5)ccc4[nH]3)CC2)CC1` (stereo unspecified), the Ki in assay [5] came to 4.2 µM; on Melanocortin receptor 3 [6], 12 µM; on Melanocortin receptor 4 [7], 4.8 µM; at Melanocortin receptor 5 [8], 12 µM.

For `C=C(Br)CN(C(=O)CCCc1c[nH]c2ccccc12)C1CCC(CC2CCC(N)CC2)CC1` (stereo in doubt; form 3), the Ki in assay [5] was found to be 1 µM; on Melanocortin receptor 3 [6], 21 µM; on Melanocortin receptor 4 [7], 3.3 µM; on Melanocortin receptor 5 [8], 7.8 µM.

As for `N=C(N)NCCN(Cc1ccc2ccccc2c1)C(=O)Cc1c[nH]c2ccccc12`, the Ki in assay [5] was found to be 19 µM; on Melanocortin receptor 3 [6], 57 µM; at Melanocortin receptor 4 [7], 179 µM; on Melanocortin receptor 5 [8] it was 15 µM.

In the case of `NC1CCCC(NC(=O)NC2CCCC(N(C/C(Cl)=C/c3ccccc3)C(=O)CCCc3c[nH]c4ccccc34)C2)C1` (stereo unspecified), the Ki in assay [5] was found to be 3.1 µM; at Melanocortin receptor 3 [6], 45 µM; at Melanocortin receptor 4 [7], 18 µM; on Melanocortin receptor 5 [8], 16 µM.

With `NCc1ccc(CN(C/C=C/c2ccccc2)C(=O)CCCc2c[nH]c3ccccc23)cc1`, the Ki in assay [5] was determined as 2.6 µM; on Melanocortin receptor 3 [6], 44 µM; at Melanocortin receptor 4 [7] it was 7.3 µM; on Melanocortin receptor 5 [8] it was 9.7 µM.

Regarding `CC1CC(CC2CCC(N(C/C(Cl)=C/c3ccccc3)C(=O)CCCc3c[nH]c4ccccc34)C(C)C2)CCC1N` (stereo in doubt; form 1), the Ki in assay [5] worked out at 5.6 µM; at Melanocortin receptor 3 [6] it was 64 µM; on Melanocortin receptor 4 [7], 7.7 µM; at Melanocortin receptor 5 [8], 9.1 µM.

Turning to `NC1CCC(CC2CCC(N(Cc3ccccn3)C(=O)CCCc3c[nH]c4ccccc34)CC2)CC1` (stereo unspecified), the Ki in assay [5] stood at 4.6 µM; at Melanocortin receptor 3 [6], 39 µM; on Melanocortin receptor 4 [7] it was 5.6 µM; on Melanocortin receptor 5 [8], 49 µM.

Take `NCCCCCCN(Cc1ccccc1)C(=O)CCCc1c[nH]c2ccccc12`: the Ki in assay [5] amounted to 13 µM; at Melanocortin receptor 3 [6], 43 µM; on Melanocortin receptor 4 [7] it was 3.4 µM; on Melanocortin receptor 5 [8] it was 3.8 µM.

`NCCCN(Cc1ccc2ccccc2c1)C(=O)Cc1ccc2ccccc2c1`: the Ki was found to be 5.9 µM in assay [5], 12 µM on Melanocortin receptor 3 [6], 16 µM at Melanocortin receptor 4 [7] and 267 µM at Melanocortin receptor 5 [8].

Turning to `NCCCCCN(CCCc1ccccc1)C(=O)Cc1c[nH]c2ccccc12`, the Ki in assay [5] turned out to be 12 µM; at Melanocortin receptor 3 [6], 47 µM; at Melanocortin receptor 4 [7], 77 µM; on Melanocortin receptor 5 [8] it was 7.9 µM.

For the molecule `NCCCN(CCCc1ccccc1)C(=O)Cc1c[nH]c2ccccc12`, the Ki stood at 5 µM in assay [5], 5.7 µM on Melanocortin receptor 3 [6], 32 µM at Melanocortin receptor 4 [7] and 13 µM at Melanocortin receptor 5 [8].

As to `N=C(N)NCCCCN(Cc1ccc2ccccc2c1)C(=O)Cc1c[nH]c2ccccc12`, the Ki in assay [5] was found to be 17 µM; at Melanocortin receptor 3 [6], 137 µM; at Melanocortin receptor 4 [7], 182 µM; at Melanocortin receptor 5 [8], 16 µM.

For `NCCCN(C(=O)c1cc2cc(OCc3ccccc3)ccc2[nH]1)C1CCc2ccccc2C1` (stereo unspecified), the Ki was found to be 26 µM in assay [5], 542 µM at Melanocortin receptor 3 [6], 21 µM on Melanocortin receptor 4 [7] and 681 µM on Melanocortin receptor 5 [8].

Take `N=C(N)NCCN(Cc1ccc2ccccc2c1)C(=O)CCc1c[nH]c2ccccc12`: the Ki in assay [5] stood at 14 µM; at Melanocortin receptor 3 [6], 65 µM; at Melanocortin receptor 4 [7], 149 µM; at Melanocortin receptor 5 [8], 17 µM.

As to `NC1CCC(CC2CCC(N(Cc3c(Cl)cccc3Cl)C(=O)CCCc3c(Cc4ccc(O)cc4)[nH]c4ccccc34)CC2)CC1` (stereo unspecified), the Ki in assay [5] amounted to 1.6 µM; on Melanocortin receptor 3 [6] it was 27 µM; at Melanocortin receptor 4 [7], 5.3 µM; on Melanocortin receptor 5 [8] it was 22 µM.

With `CC1CC(CC2CCC(N(C/C(Cl)=C/c3ccccc3)C(=O)CCCc3c[nH]c4ccccc34)C(C)C2)CCC1N` (stereo in doubt; form 2), the Ki in assay [5] was 2.2 µM; at Melanocortin receptor 3 [6], 13 µM; at Melanocortin receptor 4 [7], 3.1 µM; at Melanocortin receptor 5 [8], 4.8 µM.

In the case of `NC1CCC(CC2CCC(N(C/C(Cl)=C/c3ccccc3)C(=O)COc3ccc4ccccc4c3)CC2)CC1` (stereo in doubt; 10b-36-14), the Ki in assay [5] worked out at 1.5 µM; on Melanocortin receptor 3 [6] it was 23 µM; on Melanocortin receptor 4 [7], 3.7 µM; at Melanocortin receptor 5 [8], 5.5 µM.

Take `NC1CCC(CC2CCC(N(Cc3c(F)cccc3F)C(=O)CCCc3c[nH]c4ccccc34)CC2)CC1` (stereo unspecified): the Ki stood at 1.8 µM in assay [5], 52 µM at Melanocortin receptor 3 [6], 3 µM on Melanocortin receptor 4 [7] and 83 µM at Melanocortin receptor 5 [8].

`NCC1CCC(CN(C/C(Cl)=C/c2ccccc2)C(=O)CCCc2c[nH]c3ccccc23)CC1` (stereo unspecified): the Ki came to 1.6 µM in assay [5], 33 µM on Melanocortin receptor 3 [6], 2.5 µM at Melanocortin receptor 4 [7] and 11 µM at Melanocortin receptor 5 [8].

As for `N#Cc1ccc(CN(C(=O)CCCc2c(Cc3ccc(O)cc3)[nH]c3ccccc23)C2CCC(CC3CCC(N)CC3)CC2)cc1` (stereo unspecified), the Ki amounted to 1.4 µM in assay [5], 25 µM on Melanocortin receptor 3 [6], 2.4 µM at Melanocortin receptor 4 [7] and 21 µM on Melanocortin receptor 5 [8].

Turning to `COc1cc(Br)c(/C=C/CN(C(=O)CCCc2c[nH]c3ccccc23)C2CCC(CC3CCC(N)CC3)CC2)cc1OC` (stereo unspecified), the Ki in assay [5] is 2 µM; at Melanocortin receptor 3 [6] it was 14 µM; on Melanocortin receptor 4 [7] it was 3.2 µM; on Melanocortin receptor 5 [8] it was 266 µM.

For `CC(c1ccc(C(F)(F)F)cc1)N(CCCCCN)C(=O)Cc1c[nH]c2ccccc12` (stereo unspecified), the Ki stood at 2.6 µM in assay [5], 12 µM on Melanocortin receptor 3 [6], 16 µM on Melanocortin receptor 4 [7] and 11 µM at Melanocortin receptor 5 [8].
